Data from patent publication US11478445B2, “Method for treating acute myeloid leukemia” (Bionomics Limited, priority 2017, dated 2022).
Entries after “also recorded” stand apart in the source; their conditions may differ.

Tests used:
Format in all cases: cell-based
[1] = test system: AML cell lines; test: Total ROS assay (CM-H2DCFDA, flow cytometry)
Experimental: 1.25×10^5 cells were harvested into 5 mL tubes and washed with PBS. […] All tubes were incubated at 37° C. for 20 min and then cells washed 3 times with PBS. Cells were resuspended in 300 μL PBS and analysed on an LSRFortessa (BD Biosciences) flow cytometer. Results were analysed with FCS Express 4 Flow Research Edition software (De Novo Software).
(§1) For that, cells were plated at 10^6 cells/mL and treated with vehicle (DMSO) alone or a range of doses of EX 1 (0.1 nM, 1 nM, 10 nM and 100 nM) for 6 h, 8 h and 24 h. Cells were harvested for detection of ROS and superoxide anion (O2^·−) levels at 6 h and 24 h, for protein extraction at 8 h and 24 h, and for cell cycle analysis at 24 h.
(§2) Total ROS levels were measured by flow cytometry using the fluorogenic dye CM-H2DCFDA at a final concentration of 5 μM. Mitochondria superoxide anion (O2^·−) levels were measured by flow cytometry using MitoSox, also at a final concentration of 5 μM.

[2] = test system: AML cell lines; test: Mitochondria O2.- assay (MitoSox, flow cytometry)
Experimental: 1.25×10^5 cells were harvested into 5 mL tubes and washed with PBS. Cell pellets were resuspended in 180 μL of PBS and 20 μL of freshly prepared 5 mM MitoSox (Molecular Probes, M36008) solution added to each tube. All tubes were incubated at 37° C. for 20 min and then cells washed 3 times with PBS. Cells were resuspended in 300 μL PBS and analysed on an LSRFortessa (BD Biosciences) flow cytometer. Results were analysed with FCS Express 4 Flow Research Edition software (De Novo Software).
as §1, §2

[3] = test system: AML cell lines; test: Cell cycle assay (PI staining)
Experimental: 2×10^5 cells were harvested into 5 mL tubes and washed 3 times with PBS. Cell pellets were resuspended in 300 μL of cold PBS while vortexing. Next, cells were permeabilised with 700 μL of cold (−20° C.) 100% ethanol added dropwise while vortexing at slow speed. Cell suspensions were incubated on ice for 30 min, centrifuged at 300 g for 10 min and cell pellets resuspended in 100 μL PI solution (0.1% Triton X-100, 100 μg/mL DNAse-free RNAse A-Sigma, and 40 µg/mL PI in PBS). Cell suspensions were incubated at 37° C. for 30 min in the dark. 200 μL of PBS was added to each tube before analysis on an LSRFortessa (BD Biosciences) flow cytometer. Results were analysed with FCS Express 4 Flow Research Edition software (De Novo Software).
as §1
Therefore, cell cycle analysis was performed by PI staining in the cell lines after 24 h of treatment with a range of doses of EX 1, as described above.

[4] = test system: Noxa; test: Western blot for Noxa in AML cell lines; conditions: six AML cell lines, 10 nM and 100 nM, 8 h
Experimental: Cells were harvested (4×10^6 for cell lines and 7×10^6 for L-AMLs) and washed 3 times with cold PBS (centrifuged at 4° C.). Lysis buffer was prepared with NP40 Cell Lysis Buffer (ThermoFisher Scientific), cOmplete protease inhibitor (Roche, 046993116001), PhosStop (Roche, 04906837001) and Pefablock (Roche, 11585916001) at the recommended concentrations. After the washes, cells were resuspended in 50 μL of lysis buffer, vortexed and incubated on ice for 30 min. Samples were vortexed every 10 min. After 30 min incubation, samples were centrifuged at 14,000 g at 4° C. for 10 min and supernatants were transferred to tubes. Protein was quantified using the DC Protein Assay kit (BioRad) per manufacturer's protocol. 50 μg of cell lines lysate or 20 μg of L-AML6 lysate were loaded for SDS-PAGE. Protein was transferred from the gels into PVDF membranes using a semi dry transfer apparatus (BioRad). […]
Once it was determined that this group of AML cell lines are highly sensitive to EX 1, the mechanism underlying this response was investigated. […]
Therefore, cells were treated with a range of doses of EX 1 for 8 h and 24 h, as described above, before protein extraction was performed. […] Noxa was readily detected in control lysate prepared from HEK293 cells.

## COc1cc(C(=O)c2c(C)oc3c(O)c(OC)ccc23)cc(OC)c1OC [EX 1, 2-Methyl-7-hydroxy-3-(3,4,5-trimethoxybenzoyl)-6-methoxybenzofuran]
[1]; OCI-AML3, 24 h
  total ROS levels: dose response reduction in total ROS
[1]; the other cell lines (not OCI-AML3), 6 h and 24 h
  total ROS levels: none of the other cell lines showed any changes in total ROS levels
[2]; HL60 and ME1, 6 h
  mitochondria O2.- levels: showed a decrease in mitochondria O2^·− levels
[2]; KG1
  mitochondria O2.- levels: did not respond to the drug treatment with any detectable changes
[2]; ME1, 24 h
  mitochondria O2.- levels: even greater effect observed at 24 h
[2]; MV4;11 and MOLM13, 24 h
  mitochondria O2.- levels: increased mitochondria O2^·− levels observed at 24 h only
[2]; OCI-AML3, 6 h
  mitochondria O2.- levels: slight decrease
[2]; OCI-AML3, 24 h
  mitochondria O2.- levels: appeared to have increased O2^·− levels
[3]; HL60, KG1, OCI-AML3 and ME1, 24 h
  cell cycle distribution (G2/M): G2/M cell cycle arrest
[3]; KG1 and HL60, 24 h
  sub-G0 cell population: marked increases in the sub-G0 cell population; also recorded: increase in sub-G0 population starting at treatment with 10 nM
[3]; MV4;11 and MOLM13, 24 h
  percentage of cells in G2/M and G1: dose-dependent reduction
  sub-G0 population (apoptosis): underwent apoptosis as evidenced by the increase in sub-G0 population
[3]; MV4;11 and MOLM13, 24 h, 10 nM
  cell cycle distribution (sub-G0, G2/M): marked apoptosis induction (sub-G0 gate) and G2/M reduction
[4]
  Noxa induction: could only be detected in OCI-AML3 and ME1; also recorded: only observed in OCI-AML3 and ME1 lines
